Measurements published in patent publication US20080051445A1, “2-Thioxothiazolidin-4-one compounds and compositions as antimicrobial and antimalarial agents targeting enoyl-ACP reductase of type II fatty acid synthesis pathway and other cell growth pathways” (NATIONAL INSTITUTE OF IMMUNOLOGY., priority 2006, published 2008).
In brackets after ≈: the same amount, converted by molar mass.

How the values were obtained:
[1] = tested on: Chloroquine-sensitive Plasmodium falciparum FCK2 strain; assay: In vitro whole-cell assay against Plasmodium falciparum in red blood cell cultures; type: cell-based
Description: Compound NAV 117 was assayed for in vitro growth inhibition of Plasmodium falciparum by incubating the cultures with different concentrations of the inhibitors in Me2SO (final concentration, 0.05%). The cultures were checked for growth inhibition by microscopic examination by assessing the parasitemia at every 48 h (●) and 96 h (∘). The average of three data sets has been plotted, and the error bars are shown.
In vitro whole-cell assay against Plasmodium falciparum. Antimalarial activity of NAV-117 was checked towards the Chloroquine-sensitive Plasmodium falciparum FCK2 strain in red blood cell cultures.

PfENR = PfENR (Plasmodium falciparum, UniProt Q9BH77); assay: Inhibition of PfENR (P. falciparum enoyl-ACP reductase, PfFabI), spectrophotometric NADH/crotonoyl-CoA assay; type: biochemical
Description: PfENR activity was determined in the presence of various concentrations of the inhibitor (25 nM to 750 nM). The percent inhibition was calculated from the residual PfENR activity and was plotted against log compound NAV-117 used. The sigmoidal curve indicates the best fit for the data and IC50 value was calculated from the graph.
PfENR was assayed at two fixed concentrations -100 μM [·] and 200 μM [<] of crotonoyl CoA in presence of 250 nM of compound NAV-117 and 100 μM of NADH. Ki was calculated from the X-intercept. Plot indicates competitive kinetics with respect to crotonoyl CoA.
200 nM PfENR was assayed in presence of 200 μM crotnoyl CoA, 250 nM compound NAV-117 and 50 μM [·] and 100 μM [<] of NADH. Ki of inhibitor was calculated from the. X-intercept. Plot indicates noncompetitive kinetics with respect to NADH.
Spectrophotometric assay of enzyme activity The activity of the Enoyl-ACP reductase was assayed by following rate of the disappearance of NADH using crotonyl-CoA as a substrate. The assay mixture (100 μl) comprised of 100 μM crotonyl-CoA 100 μM NADH and 1% ethanol in […] buffer, pH 7.5. The kinetic parameters were obtained form the double reciprocal plots.
Enzyme inhibition studies The inhibition studies were carried out by preincubating enoyl ACP reductase with the respective compound and various concentrations of the coenzymes at 4° C. for 5 hours. This was warmed to 25° C. and assay was started by the addition of the crotonyl-CoA. The inhibition constant Ki was determined by using the following equation: v=v0/(1+[I]/Ki)
Kinetics of inhibition of PfENR. We deduced the kinetics of inhibition for NAV-117 with respect to crotonoyl CoA as well as NADH. The reaction velocity was measured at a fixed concentration of substrate varying the inhibitor concentration. A graph of the reciprocal of velocity against inhibitor concentration was plotted. […] The IC50 value was calculated by ploting the residual PfENR activity against log of inhibitor concentration and fitting the data points into a sigmoidal curve (FIG. 3). […]

Sequence of PfENR (Q9BH77 entry or part of it): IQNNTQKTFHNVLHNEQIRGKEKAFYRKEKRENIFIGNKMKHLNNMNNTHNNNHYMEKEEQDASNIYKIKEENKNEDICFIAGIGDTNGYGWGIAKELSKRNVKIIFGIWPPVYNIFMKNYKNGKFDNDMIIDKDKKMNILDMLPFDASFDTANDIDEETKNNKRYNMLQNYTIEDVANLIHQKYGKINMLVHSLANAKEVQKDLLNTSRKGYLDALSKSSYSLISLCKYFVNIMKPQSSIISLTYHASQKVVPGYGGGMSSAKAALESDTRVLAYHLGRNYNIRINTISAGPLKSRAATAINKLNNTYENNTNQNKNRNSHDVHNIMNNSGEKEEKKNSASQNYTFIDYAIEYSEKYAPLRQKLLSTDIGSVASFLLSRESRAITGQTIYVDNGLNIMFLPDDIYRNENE

`O=C1/C(=C/c2ccc(O)c(O)c2)SC(=S)N1c1ccccc1` [NAV-117, 5-(3,4-Dihydroxy-benzylidene)-3-phenyl-2-thioxo-thiazolidin-4-one] was tested, and the IC50 ([1]; Erythrocyte, after 96 h, non-linear regression (FIG. 6), read-out: IC50 value for growth inhibition of the parasite) was about 0.75 µM, the MIC ([1]; read-out: MIC (minimum inhibitory concentration)) was 2.5 µM (≈ 0.824 µg/mL) and the “inhibition kinetics with respect to crotonoyl CoA (Dixon plot)” value (PfENR; 100 μM and 200 μM crotonoyl CoA, 100 μM NADH (FIG. 4)) was “competitive”. The “inhibition kinetics with respect to NADH (Dixon plot)” value (PfENR; 200 μM crotonoyl CoA, 50 μM and 100 μM NADH (FIG. 5)) was “noncompetitive” and the IC50 (PfENR; inhibitor 25 nM to 750 nM, sigmoidal fit (FIG. 3), read-out: IC50 value (residual PfENR activity against log of inhibitor concentration) (converted)) was 0.242 µM.
